Where two headings read alike, the source gives them in different places.
Experiments:
[1] = system: Staphylococcus aureus strain ATCC 29213 (wild type); assay: Chessboard technique: MICs alone and synergism of Cx1 combinations; assay type: cell-based
Excerpt: (§1) Three reference strains were used, corresponding to those studied for the MICs and MBCs (Minimum Bactericidal Concentration): Escherichia coli ATCC 25922, Staphylococcus aureus ATCC 29213, Pseudomonas aeruginosa ATCC 27853. For each of these strains 3 corresponding clinical isolates were chosen, having various antibiotic-resistance profiles, routinely used in standard fashion: • EcR1, EcR2, EcR3; • SaR1, SaR3, SaR4; • PaR2, PaR3, PaR5.
(§2) 1.3. Procedure: Chessboard Technique
(§3) The bacterial suspension is transferred to a 15 mL Falcon tube, centrifuged for 10 min at 4500 g, then the pellet is re-suspended in 1 mL of sterile distilled water. Suitable dilutions are then prepared in order to obtain a bacterial inoculum between 5·10^5 and 5·10^6 CFU/mL.
(§4) The MICs of the antibiotics were previously determined for each strain, by the method of microdilution in a liquid medium (CLSI (Clinical and Laboratory Standards Institute), 2003).
(§5) The same procedure is followed for the Cx1. […] Thus 64 ATB/Cx1 combinations are obtained.
(§6) The final volume contained in each of the wells must be 100 μL. Two controls must be present on each plate: • column 1 and 12: medium control • column 2 and 11: medium+bacteria control
(§7) Cx1: […] in the wells of […], starting with the lowest concentration.
(§8) ATB: 25 μL in the wells of rows H to A (columns 3 to 11), starting with the lowest concentration.
(§9) 50 μL in each of the wells of columns 2 to 11.
(§10) D2: Reading the Turbidity at 540 Nm.
(§11) The FIC (Fractional Inhibitory Concentration Index) value is determined by the following formula:
(§12) [formula] MICA in combination MICA alone MICB in combination MICB alone
(§13) When FIC≦0.5, there is a synergistic effect between antibiotic A and antibiotic B.
(§14) When 0.5<FIC≦1, there is an additive effect between antibiotic A and antibiotic B.
(§15) When 1<FIC≦4, there is an indifferent effect between antibiotic A and antibiotic B.
(§16) When FIC>4, there is an antagonistic effect between antibiotic A and antibiotic B.
(§17) For each strain and each antibiotic/Cx1 combination, the experiments were repeated a minimum of 3 times.

[2] = system: MRSA strain having a resistance to the aminoglycosides, fluoroquinolones, macrolides-lincosamides-synergistins and ofloxacin (SaR4); assay: as above; assay type: cell-based, Staphylococcus aureus; details: antibiotic used alone; second figure of the cell; n = 4
Excerpt: as §1, §2, §3, §4, §5, §6, §7, §8, §9, §10, §11, §12, §13, §14, §15, §16, §17

[3] = system: MRSA strain having a resistance to the aminoglycosides and fluoroquinolones (SaR3); assay: as above; assay type: cell-based, Staphylococcus aureus
Excerpt: as §1, §2, §3, §4, §5, §6, §7, §8, §9, §10, §11, §12, §13, §14, §15, §16, §17

[4] = system: MRSA strain without associated resistance (SaR1); assay: as above; assay type: cell-based, Staphylococcus aureus
Excerpt: as §1, §2, §3, §4, §5, §6, §7, §8, §9, §10, §11, §12, §13, §14, §15, §16, §17

[5] = system: SaR3: Meticillin-Resistant Staphylococcus aureus; assay: Antibiogram by the disk diffusion technique; assay type: cell-based; details: Table E1; strain SaR3
[6] = system: SaR1: Meticillin-Resistant Staphylococcus aureus without Associated Resistance; assay: Antibiogram by the VITEK 2 system; assay type: cell-based; details: Table D1; strain SaR1
Procedure: 5.4 SaR1: Meticillin-Resistant Staphylococcus aureus without Associated Resistance
The bacterial and antibiogram identification is carried out by the VITEK 2 system (bioMérieux)
February 2006: Detection of the gene mecA by the PCR technique: POSITIVE Expert finding July 2006: totally typical phenotype: modification of the PLPs The fluctuations relative to the type of associated resistance for certain strains between Tables D1 and D2 are due to the development of the French (CA-SFM), European (EUCAST) and American (CLSI) recommendations for the categorization of bacterial strains. 5.5 SaR3: Meticillin-Resistant Staphylococcus aureus Having an Associated Resistance to the Aminoglycosides and Fluoroquinolones The bacterial and antibiogram identification is carried out by the VITEK 2 system (bioMérieux) and by the disk diffusion technique

[7] = system: mucoid strain of Pseudomonas aeruginosa having a resistance to rifampicin and the trimethoprim-sulphamethoxazole combination (PaR5); assay: Chessboard technique: MICs alone and synergism of Cx1 combinations; assay type: cell-based; details: antibiotic used alone; second figure of the cell; n = 4
Excerpt: as §1, §2, §3, §4, §5, §6, §7, §8, §9, §10, §11, §12, §13, §14, §15, §16, §17

[8] = system: ESBL-producing strain of Escherichia coli (EcR3); assay: as above; assay type: cell-based; details: antibiotic used alone; second figure of the cell; n = 4
Excerpt: as §1, §2, §3, §4, §5, §6, §7, §8, §9, §10, §11, §12, §13, §14, §15, §16, §17

[9] = system: Pseudomonas aeruginosa strain ATCC 27853 (wild type); assay: as above; assay type: cell-based; details: antibiotic used alone; second figure of the cell; n = 4
Excerpt: as §1, §2, §3, §4, §5, §6, §7, §8, §9, §10, §11, §12, §13, §14, §15, §16, §17

[10] = system: Pseudomonas aeruginosa strain having a resistance to β-lactams (including the carbapenems), aminoglycosides, the trimethoprim-sulphamethoxazole combination and …; assay: as above; assay type: cell-based; details: antibiotic used alone; second figure of the cell; n = 4
Excerpt: as §1, §2, §3, §4, §5, §6, §7, §8, §9, §10, §11, §12, §13, §14, §15, §16, §17

[11] = system: cephalosporinase-hyperproducing strain of Escherichia coli (EcR2); assay: as above; assay type: cell-based; details: antibiotic used alone; second figure of the cell; n = 4
Excerpt: as §1, §2, §3, §4, §5, §6, §7, §8, §9, §10, §11, §12, §13, §14, §15, §16, §17

[12] = system: EcR2: Cephalosporinase-Hyperproducing Escherichia coli; assay: Antibiogram by the disk diffusion technique; assay type: cell-based; details: Table B2; strain EcR2; diameters
Procedure: 5.2 EcR2: Cephalosporinase-Hyperproducing Escherichia coli Having an Associated Resistance to the Aminoglycosides, Quinolones and the Trimethoprim-Sulphamethoxazole Combination
The bacterial and antibiogram identification is carried out by the VITEK 1 system (bioMérieux) and by the disk diffusion technique

[13] = system: EcR1: Penicillinase-Producing Escherichia coli without Associated Resistance; assay: Antibiogram, MIC by the VITEK 2 system; assay type: cell-based; details: Table A1, category from MIC
Procedure: (§18) 5. Identification and Antibiogram 5.1 EcR1: Penicillinase-Producing Escherichia coli without Associated Resistance
(§19) The bacterial and antibiogram identification is carried out by the VITEK 2 system (bioMérieux) and by the disk diffusion technique.

[14] = system: EcR1: Penicillinase-Producing Escherichia coli without Associated Resistance; assay: Antibiogram by the disk diffusion technique; assay type: cell-based; details: Table A1, category from diameter vs Dmin Dmax
Procedure: as §18, §19

[15] = system: Pseudomonas aeruginosa strain having a resistance to β-lactams, the trimethoprim-sulphamethoxazole combination and fosfomycin (PaR2); assay type: cell-based; details: antibiotic used alone; second figure of the cell; n = 4
Excerpt: as §1, §2, §3, §4, §5, §6, §7, §8, §9, §10, §11, §12, §13, §14, §15, §16, §17

[16] = system: Escherichia coli, Staphylococcus aureus and Pseudomonas aeruginosa strains; assay: Chessboard technique, summary over all strains and combinations tested; assay type: cell-based
Excerpt: as §1, §2
The FIC (Fractional Inhibitory Concentration Index) value is determined by the following formula: […]
as §17

[17] = Chessboard technique: MICs alone and synergism of Cx1 combinations; assay type: cell-based, Staphylococcus aureus; details: Staphylococcus aureus, MRSA, read-out: MIC (antibiotic)
Excerpt: as §1, §2, §3, §4, §5, §6, §7, §8, §9, §10, §11, §12, §13, §14, §15, §16, §17

[18] = system: SaR4: Meticillin-Resistant Staphylococcus aureus; assay: Antibiogram, MIC by the VITEK 2 system; assay type: cell-based
Procedure: 5.6 SaR4: Meticillin-Resistant Staphylococcus aureus Having an Associated Resistance to the Aminoglycosides, Fluoroquinolones, Macrolides-Lincosamines-Synergistins and Ofloxacin The bacterial and antibiogram identification is carried out by the VITEK 2 system (bioMérieux) and by the disk diffusion technique
5.7 PaR2: Pseudomonas aeruginosa Having an Associated Resistance to the β-Lactams, the Trimethoprim-Sulphamethoxazole Combination and Fosfomycin The bacterial and antibiogram identification is carried out by the VITEK 2 system (bioMérieux) and by the disk diffusion technique

[19] = antibiotic used alone, second figure of the cell, n = 4
[20] = Staphylococcus aureus, MRSA, read-out: MIC (antibiotic)

CC1(C)S[C@@H]2[C@H](NC(=O)Cc3ccccc3)C(=O)N2[C@H]1C(=O)O [Penicillin G]
Initials MIC (antibiotic) [1, 19]: 1 µg/mL | MIC (antibiotic) [2]: 4 µg/mL | MIC (antibiotic) [3, 19]: 0.5 µg/mL | MIC (antibiotic) [4, 19]: 0.5 µg/mL | Diameter [5]: 26 | Diameter [6]: 28

NC[C@H]1O[C@H](O[C@H]2[C@H](O)[C@@H](O[C@H]3O[C@H](CO)[C@@H](O)[C@H](N)[C@H]3O)[C@H](N)C[C@@H]2N)[C@H](N)C[C@@H]1O [Tobramycin]
MIC (antibiotic) [7]: 1 µg/mL | Initial MICs (antibiotic) [8]: 4 mg/L | MIC (antibiotic) [9]: 0.5 µg/mL | MIC (antibiotic) [10]: 64 µg/mL | Initial MICs (antibiotic) [11]: 4 mg/L | diameter in mm [12]: 10 mm | Results (MIC) [13]: Susceptible | Results (diameter) [14]: Susceptible | MIC (antibiotic) [15]: 1 µg/mL | nature of the interaction between Cx1 and the antibiotic [16]: synergism

CN[C@H](CC(C)C)C(=O)N[C@H]1C(=O)N[C@@H](CC(N)=O)C(=O)N[C@H]2C(=O)N[C@H]3C(=O)N[C@H](C(=O)N[C@H](C(=O)O)c4cc(O)cc(O)c4-c4cc3ccc4O)[C@H](O)c3ccc(c(Cl)c3)Oc3cc2cc(c3O[C@@H]2O[C@H](CO)[C@@H](O)[C@H](O)[C@H]2O[C@H]2C[C@](C)(N)[C@H](O)[C@H](C)O2)Oc2ccc(cc2Cl)[C@H]1O [Vancomycin]
MIC ([1]; Staphylococcus aureus, ATCC29213, read-out: Initials MIC (antibiotic)): 0.5 µg/mL | MIC [3, 20]: 0.25 µg/mL | MIC [17]: 0.25 µg/mL | MIC [4, 20]: 0.25 µg/mL | MIC ([18]; Staphylococcus aureus, read-out: MIC mg/L): 1 mg/L | MIC ([18]; Table F2, strain SaR4, cells of the mixed column that are MICs): 1 mg/L

Pristinamycin
Diameter [5]: 23 | Diameter [6]: 25

CC(C)(O/N=C(\C(=O)N[C@@H]1C(=O)N2C(C(=O)[O-])=C(C[n+]3ccccc3)CS[C@H]12)c1csc(N)n1)C(=O)O [Ceftazidime]
MIC (antibiotic) [7]: 8 µg/mL | Initial MICs (antibiotic) [8]: 1 mg/L | MIC (antibiotic) [9]: 4 µg/mL | MIC (antibiotic) [10]: 16 µg/mL | Initial MICs (antibiotic) [11]: 8 mg/L | diameter in mm [12]: 20 mm | Results (MIC) [13]: Susceptible | MIC (antibiotic) [15]: 8 µg/mL | nature of the interaction between Cx1 and the antibiotic [16]: synergism

— patent US8946299B2, “Use of calixarenes associated with an antibiotic in the treatment of bacterial infections” (Universite de Lorraine, priority 2011, dated 2015)
